PubChem BioAssay (NCI)
Where “and” joins values, the source holds several entries; their conditions need not be identical. Equal entries are not always repeated.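 Exposure lasted 48 hours, with cells grown in 96-well plates and compounds tested at five concentrations. Abbreviation: GI50, concentration required for 50% inhibition of growth. At the TGI there is no net growth.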

Tests used:
Assay in all cases: NCI-60 cell line screen, 48 h
HS 578T breast = system: HS 578T breast
SK-MEL-28 melanoma = system: SK-MEL-28 melanoma
OVCAR-5 ovarian = system: OVCAR-5 ovarian
RXF 393 renal = system: RXF 393 renal
MALME-3M melanoma = system: MALME-3M melanoma
SF-268 CNS = system: SF-268 CNS
MDA-MB-435 = system: MDA-MB-435
LOX IMVI melanoma = system: LOX IMVI melanoma

Structure (SMILES)	GI50 (HS 578T breast)	TGI (HS 578T breast)	GI50 (SK-MEL-28 melanoma)	TGI (SK-MEL-28 melanoma)	GI50 (OVCAR-5 ovarian) [µM]	TGI (OVCAR-5 ovarian) [µM]	GI50 (RXF 393 renal)	TGI (RXF 393 renal)	GI50 (MALME-3M melanoma)	TGI (MALME-3M melanoma)	GI50 (SF-268 CNS)	TGI (SF-268 CNS)	GI50 (MDA-MB-435)	TGI (MDA-MB-435)	GI50 (LOX IMVI melanoma)	TGI (LOX IMVI melanoma)
C/C(CCC(=O)O)=N/Nc1ccc([N+](=O)[O-])cc1	> 100 µM	> 100 µM	> 100 µM	> 100 µM	> 100	> 100	> 100 µM	> 100 µM	65 µM	> 100 µM	29 µM	> 100 µM	4.37 µM	> 100 µM	1.84 µM	> 100 µM
COc1cc2c(c(O)c1Cl)C(=O)c1c(O)cc(C[C@H](C)O)cc1[C@H]2[C@H]1c2cc(C[C@H](C)O)cc(O)c2C(=O)c2c1cc(OC)c(Cl)c2O	–	75 µM and 64.9 µM	–	75 µM and > 100 µM	–	–	–	–	–	5.27 µM and 47.3 µM	3.36 µM and 31.5 µM	75 µM and > 100 µM	–	16 µM and 98.3 µM	–	13.2 µM and > 100 µM
CC(c1cc(Cl)ccc1O)c1cc(Cl)ccc1O	2.74 µM	7.19 µM	4.13 µM	17 µM	11.1	26.7	3.42 µM	9.7 µM	4.61 µM	22.7 µM	4.33 µM	16.9 µM	2.32 µM	7.25 µM	3.97 µM	17.1 µM
COC(=O)Oc1nn(C(=O)OC)c(=O)c2ccccc12	–	> 100 µM	–	> 100 µM	–	> 100	–	–	–	> 100 µM	–	> 100 µM	–	> 100 µM	–	> 100 µM
CC1(C)CC(=O)C=C(/C=C/Sc2c(Cl)c(Cl)nc(Cl)c2Cl)C1	25.8 µM	74.3 µM	15.5 µM	31.9 µM	14.5	29.7	7.61 µM	22 µM	–	–	13 µM	32.4 µM	2.88 µM	8.2 µM	3.26 µM	12.9 µM
C[C@H](c1ccc(F)cc1CCCC(=O)O)N(c1cc(F)ccc1F)S(=O)(=O)c1ccc(Cl)cc1	20 µM	> 85 µM	22.1 µM	65.5 µM	43.8	> 100	21 µM	> 79.7 µM	23.5 µM	93.8 µM	34.5 µM	> 100 µM	20.6 µM	51.3 µM	29.2 µM	> 100 µM
CN1CC=C(c2cc(NC(=O)Nc3ccc(Oc4ccnc(NC(=O)C5CC5)c4)c(F)c3)cc(C(F)(F)F)c2)CC1	0.982 µM	3.09 µM	1.23 µM	3.07 µM	0.289	2.44	0.172 µM	0.411 µM	0.289 µM	1.13 µM	0.206 µM	1.41 µM	0.429 µM	1.17 µM	0.181 µM	0.645 µM
O=C(c1ccccc1)C(Cl)C(Cl)c1ccccc1 (configuration not stated)	9.28 µM	45.3 µM	2.47 µM	6.46 µM	5.48	20.9	1.72 µM	3.52 µM	–	–	4.71 µM	17.3 µM	2.26 µM	5.56 µM	1.43 µM	2.82 µM
CCCCCCCCCCCCCC[n+]1ccccc1	1.59 µM	5.13 µM	1.31 µM	3.03 µM	0.733	2.35	–	–	0.401 µM	1.59 µM	–	–	0.549 µM	1.87 µM	–	–
Cc1ccc([Se](=C(C(=O)c2ccccc2)C(=O)c2ccccc2)c2ccc(C)cc2)cc1	–	72.9 µM	–	> 100 µM	–	> 100	–	> 100 µM	–	50.3 µM	–	> 100 µM	–	55 µM	–	–
O=C1/C(=C/c2ccc([N+](=O)[O-])s2)Oc2cc(Cl)ccc21	0.519 µM	5.43 µM	–	–	–	–	1.04 µM	2.63 µM	–	–	–	–	–	–	–	–
CS(=O)(=O)CCNCc1ccc(-c2ccc3ncnc(Nc4ccc(OCc5cccc(F)c5)c(Cl)c4)c3c2)o1	> 10 µM and 8.49 µM and 8.64 µM	> 10 µM and > 53.7 µM and 57.6 µM	> 10 µM and 4.37 µM and 3.35 µM	> 10 µM and 16.5 µM and 18.9 µM	–	–	8.01 µM and 2.05 µM and 1.79 µM	> 10 µM and 4.5 µM and 7.05 µM	> 10 µM and 1.66 µM and 2.67 µM	> 10 µM and 3.23 µM and 6.56 µM	> 10 µM and 5.18 µM and 11.6 µM	> 10 µM and > 100 µM and 43.4 µM	> 10 µM and 4.38 µM and 7.84 µM	> 10 µM and > 30.8 µM and 34.1 µM	8.23 µM and 1.79 µM and 4.19 µM	> 10 µM and 3.35 µM and 10.1 µM
COC(=O)C12CCC(C)(C)CC1C1=CCC3C4(C)CC(O)C(O)C(C)(C(=O)OC)C4CCC3(C)C1(CO)CC2 (configuration not stated)	–	28.2 µM	–	–	–	31.8	–	19.5 µM	–	–	–	44.9 µM	–	32.4 µM	–	28.1 µM
N#CC(C#N)=CNCCN1CCN(C=C(C#N)C#N)CC1	–	> 100 µM	–	> 100 µM	–	> 100	–	–	–	> 100 µM	–	> 100 µM	–	> 100 µM	–	> 100 µM
COc1ccc(-c2coc3cc(O)ccc3c2=O)cc1	–	> 100 µM	–	> 100 µM	–	> 100	–	–	–	> 100 µM	–	> 100 µM	–	> 100 µM	–	–
O=C(/C=C/C12c3ccccc3C(c3ccccc31)C1C(=O)N(c3ccc(Cl)cc3)C(=O)C12)c1ccccn1 (configuration not stated)	–	–	0.342 µM	1.61 µM	0.309	1.14	0.187 µM	0.448 µM	0.242 µM	0.639 µM	0.672 µM	> 28.8 µM	0.301 µM	0.981 µM	0.177 µM	0.358 µM
Cc1ccc([P+](Cc2ccccc2)(c2ccccc2)c2ccccc2)cc1	3.19 µM	83.4 µM	3.13 µM	25.8 µM	3.42	> 100	3.68 µM	41.1 µM	–	–	3.66 µM	> 100 µM	0.61 µM	3.42 µM	2.48 µM	14.3 µM
COC1=CC(c2ccc[nH]2)=N/C1=C\c1[nH]c(C)c(C(=O)CCC(=O)Oc2ccc3c(c2)CCC2C3CC[C@]3(C)[C@@H](O)CC[C@@H]23)c1C (some centres not stated)	3.17 µM	> 100 µM	5.64 µM	> 100 µM	5.47	> 100	4.71 µM	69.8 µM	–	–	2.91 µM	> 100 µM	3.25 µM	> 100 µM	0.797 µM	2.57 µM
O=Cc1cccc2ccc3ccccc3c12	–	54.7 µM	–	–	–	–	–	61 µM	–	49.7 µM	–	43.1 µM	–	49.6 µM	–	45.9 µM
COC(=O)c1cc(NC(=O)c2cc(NC(=O)c3cc([N+](=O)[O-])n(C)c3)cn2C)cn1C	> 100 µM	> 100 µM	–	–	30.9	> 100	> 100 µM	> 100 µM	–	–	> 100 µM	> 100 µM	> 100 µM	> 100 µM	10.7 µM	85.9 µM
COC(=O)C1=COC2OC3C(C(C)O)C(=O)OC34C=CC1C24 (configuration not stated)	–	> 100 µM	–	> 100 µM	–	> 100	–	–	–	> 100 µM	–	> 100 µM	–	> 100 µM	–	> 100 µM
